Read-outs that look alike come from different tables or passages of the source.
How the values were obtained:
[1] = snar bond
[2] = biological target: CFTR-mediated chloride transport (Homo sapiens, UniProt P13569); format: cell-based; conditions: enteroid cells incubated with test compound 18-24 hours, acute 10 μM forskolin and 300 nM Compound III; for Max. Activity: % of chloride transport with 3 μM Compound A, 3 μM Compound II and 300 nM acute Compound III triple combination control
Procedure, shortened: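 Human intestinal enteroid cells incubated with compound 18–24 h at 37° C., then membrane potential dye (FLIPR) read 15 min after chloride-free stimulation with 10 μM forskolin, 100 μM IBMX and 300 nM Compound III. AUC expressed as % of triple-combination control (3 μM Compound A, 3 μM Compound II, 300 nM Compound III).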

[3] = from 2-chloro-6-[3-(4,4-dimethylpentoxy)-2-oxo-pyrrolidin-1-yl]-N-[[6-[3-[(3S)-5,5-dimethylpyrrolidin-3-yl]propylamino]-2-pyridyl]sulfonyl]pyridine-3-carboxamide (dihydrochloride salt), 15-membered ring, K2CO3, NMP, 24.7 mM, 155.0 °C

Sequence of CFTR-mediated chloride transport (P13569 whole entry, looked up): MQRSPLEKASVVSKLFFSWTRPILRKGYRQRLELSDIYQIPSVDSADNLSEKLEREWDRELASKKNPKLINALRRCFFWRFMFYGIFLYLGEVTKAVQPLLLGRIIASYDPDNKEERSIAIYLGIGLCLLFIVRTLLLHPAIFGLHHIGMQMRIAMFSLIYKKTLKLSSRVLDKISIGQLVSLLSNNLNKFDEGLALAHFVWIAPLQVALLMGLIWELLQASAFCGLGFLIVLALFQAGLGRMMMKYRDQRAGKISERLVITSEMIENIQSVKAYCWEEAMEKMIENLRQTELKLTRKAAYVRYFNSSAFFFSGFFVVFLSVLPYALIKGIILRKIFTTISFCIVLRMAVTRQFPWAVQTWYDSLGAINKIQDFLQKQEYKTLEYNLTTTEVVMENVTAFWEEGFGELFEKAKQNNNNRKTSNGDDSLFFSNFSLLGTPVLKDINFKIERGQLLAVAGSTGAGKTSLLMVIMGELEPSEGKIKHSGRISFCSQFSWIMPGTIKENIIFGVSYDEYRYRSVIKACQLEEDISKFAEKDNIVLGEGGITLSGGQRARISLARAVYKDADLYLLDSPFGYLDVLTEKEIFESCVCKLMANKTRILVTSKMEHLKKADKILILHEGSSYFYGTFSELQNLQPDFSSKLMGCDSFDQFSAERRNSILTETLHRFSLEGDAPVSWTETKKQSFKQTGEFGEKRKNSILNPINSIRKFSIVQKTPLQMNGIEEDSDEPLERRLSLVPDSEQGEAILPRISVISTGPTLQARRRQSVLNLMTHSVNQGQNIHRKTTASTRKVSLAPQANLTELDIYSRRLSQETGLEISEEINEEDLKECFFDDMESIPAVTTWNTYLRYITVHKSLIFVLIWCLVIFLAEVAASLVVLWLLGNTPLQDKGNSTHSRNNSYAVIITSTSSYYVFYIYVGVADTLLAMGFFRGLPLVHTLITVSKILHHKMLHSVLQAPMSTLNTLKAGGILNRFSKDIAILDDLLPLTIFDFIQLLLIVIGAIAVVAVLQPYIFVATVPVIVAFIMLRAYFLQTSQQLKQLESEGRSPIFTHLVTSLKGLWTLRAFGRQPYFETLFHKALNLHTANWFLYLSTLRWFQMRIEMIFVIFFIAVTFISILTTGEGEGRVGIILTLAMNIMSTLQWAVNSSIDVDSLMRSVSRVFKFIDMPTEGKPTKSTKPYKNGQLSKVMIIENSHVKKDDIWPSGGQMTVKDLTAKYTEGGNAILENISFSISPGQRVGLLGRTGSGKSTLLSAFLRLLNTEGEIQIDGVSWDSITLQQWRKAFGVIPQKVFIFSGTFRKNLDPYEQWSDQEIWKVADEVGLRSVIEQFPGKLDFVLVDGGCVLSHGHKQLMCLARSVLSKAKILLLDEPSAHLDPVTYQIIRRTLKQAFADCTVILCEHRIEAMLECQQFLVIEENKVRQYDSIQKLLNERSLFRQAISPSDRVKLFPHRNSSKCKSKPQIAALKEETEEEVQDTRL

Compound: CC1(C)C[C@@H]2CCCNc3cccc(n3)S(=O)(=O)NC(=O)c3ccc(-n4ccc(OCCC5C(C)(C)C5(C)C)n4)nc3N1C2 [Compound 185, (14S)-12,12-Dimethyl-8-{3-[2-(2,2,3,3-tetramethylcyclopropyl)ethoxy]-1H-pyrazol-1-yl}-2λ^6-thia-3,9,11,18,23-pentaazatetracyclo[17.3.1.111,14.05,10]tetracosa-1(23),5(10),6,8,19,21-hexaene-2,2,4-trione]
- ring closure, isolated yield ([1]; from CC(C)(C)OC(=O)N1C[C@@H](CCCNc2cccc(S(=O)(=O)NC(=O)c3ccc(-n4ccc(OCCC5C(C)(C)C5(C)C)n4)nc3Cl)n2)CC1(C)C, 15-membered ring, K2CO3/3A MS, DMSO, 37.9 mM, 160.0 °C, 2 steps): 19%
- EC50 [2]: < 1000 nM
- Max. Activity [2]: +++ (+++ is >60%)

Compound: CC1(C)CC2CNc3cccc(n3)S(=O)(=O)NC(=O)c3ccc(-n4ccc(OCCC5(C(F)(F)F)CC5)n4)nc3N1C2 (centres unmarked) [Compound 17, 6,6-dimethyl-10-(3-{2-[1-(trifluoromethyl)cyclopropyl]ethoxy}-1H-pyrazol-1-yl)-16λ^6-thia-2,7,9,15,21-pentaazatetracyclo[15.3.1.14,7.08,13]docosa-1(20),8,10,12,17(21),18-hexaene-14,16,16-trione]
- ring closure, isolated yield ([1]; from CC(C)(C)OC(=O)N1CC(CNc2cccc(S(=O)(=O)NC(=O)c3ccc(-n4ccc(OCCC5(C(F)(F)F)CC5)n4)nc3Cl)n2)CC1(C)C, 13-membered ring, K2CO3/CsF/3A MS, DMSO, 45.0 mM, 155.0 °C, 2 steps): 57%
- EC50 [2]: 1000 to 3000 nM
- Max. Activity [2]: ++ (++ is 30-60%)

Compound: CC1(C)CCC2CCNc3cccc(n3)S(=O)(=O)NC(=O)c3ccc(-n4ccc(OCCC5(C(F)(F)F)CC5)n4)nc3N21 (racemic) [Compound 108, 8,8-Dimethyl-12-(3-{2-[1-(trifluoromethyl)cyclopropyl]ethoxy}-1H-pyrazol-1-yl)-18λ^6-thia-2,9,11,17,23-pentaazatetracyclo[17.3.1.05,9.010,15]tricosa-1(23),10(15),11,13,19,21-hexaene-16,18,18-trione]
- ring closure, isolated yield ([1]; from CC(C)(C)OC(=O)N1C(CCNc2cccc(S(=O)(=O)NC(=O)c3ccc(-n4ccc(OCCC5(C(F)(F)F)CC5)n4)nc3Cl)n2)CCC1(C)C, 13-membered ring, TFA (Boc off), CsF/K2CO3/3A MS, DMSO, 84.6 mM, 130.0 °C, 2 steps): 55%
- EC50 [2]: < 1000 nM
- Max. Activity [2]: ++ (++ is 30-60%)

Compound: CN1CCCC2CN(c3nc(-n4ccc(OCCC5(C(F)(F)F)CC5)n4)ccc3C(=O)NS(=O)(=O)c3cccc1n3)C(C)(C)C2 (centres unmarked) [Compound 133, 12,12,18-trimethyl-8-(3-{2-[1-(trifluoromethyl)cyclopropyl]ethoxy}-1H-pyrazol-1-yl)-2λ^6-thia-3,9,11,18,23-pentaazatetracyclo[17.3.1.111,14.05,10]tetracosa-1(23),5(10),6,8,19,21-hexaene-2,2,4-trione]
- ring closure, isolated yield ([1]; from CN(CCCC1CNC(C)(C)C1)c1cccc(S(=O)(=O)NC(=O)c2ccc(-n3ccc(OCCC4(C(F)(F)F)CC4)n3)nc2Cl)n1, 15-membered ring, K2CO3/CsF/3A MS, DMSO, 30.3 mM, 165.0 °C, 4.0 h): 42%
- EC50 [2]: < 1000 nM
- Max. Activity [2]: +++ (+++ is >60%)

Compound: CC1CCC2CN(c3nc(Cl)ccc3C(=O)NS(=O)(=O)c3cccc(n3)N1)C(C)(C)C2 (centres unmarked)
- ring closure, isolated yield ([1]; from CC(CCC1CN(C(=O)OC(C)(C)C)C(C)(C)C1)Nc1cccc(S(=O)(=O)NC(=O)c2ccc(Cl)nc2Cl)n1, 15-membered ring, K2CO3/CsF/3A MS, DMSO, 229.0 mM, 140.0 °C, 2 steps): 31%

Compound: CC1(C)CC2CCCCNc3ccc(cn3)S(=O)(=O)NC(=O)c3ccc(-n4ccc(OCC5C6(CC6)C56CC6)n4)nc3N1C2 (centres unmarked)
- ring closure, isolated yield ([1]; from 2-chloro-N-[[6-[4-(5,5-dimethylpyrrolidin-3-yl)butylamino]-3-pyridyl]sulfonyl]-6-[3-(dispiro[2.0.2.1]heptan-7-ylmethoxy)pyrazol-1-yl]pyridine-3-carboxamide (dihydrochloride salt), 17-membered ring, K2CO3/CsF, NMP, 115.5 mM): 22%

Compound: CC1(C)C[C@@H]2CCCNc3cc(OCc4ccccc4)cc(n3)S(=O)(=O)NC(=O)c3ccc(-n4ccc(OCCC5C6(CC6)C56CC6)n4)nc3N1C2
- ring closure, isolated yield ([1]; from CC1(C)C[C@H](CCCNc2cc(OCc3ccccc3)cc(S(=O)(=O)NC(=O)c3ccc(-n4ccc(OCCC5C6(CC6)C56CC6)n4)nc3Cl)n2)CN1, 15-membered ring, K2CO3/CsF, DMSO, 15.3 mM, 160.0 °C, 15.0 h): 61%

Compound: racemic 8-[3-(2-{dispiro[2.0.2.1]heptan-7-yl}ethoxy)-1H-pyrazol-1-yl]-16,16-difluoro-12,12-dimethyl-2λ^6-thia-3,9,11,18,23-pentaazatetracyclo[17.3.1.111,14.05,10]tetracosa-1(22),5,7,9,19(23),20-hexaene-2,2,4-trione
- ring closure, isolated yield ([1]; 15-membered ring, K2CO3, NMP, 31.1 mM, 150.0 °C): 83%

Compound: CC1(C)C[C@@H]2CCCNc3cc(OCc4ccccc4)cc(n3)S(=O)(=O)NC(=O)c3ccc(-n4ccc(OCCCC5(C(F)(F)F)CC5)n4)nc3N1C2
- ring closure, isolated yield ([1]; from CC1(C)C[C@H](CCCNc2cc(OCc3ccccc3)cc(S(=O)(=O)NC(=O)c3ccc(-n4ccc(OCCCC5(C(F)(F)F)CC5)n4)nc3Cl)n2)CN1, 15-membered ring, K2CO3/CsF, DMSO, 14.1 mM, 160.0 °C, 15.0 h): 56%

Compound: CC1(C)C[C@@H]2CCCNc3cccc(n3)S(=O)(=O)NC(=O)c3ccc(Cl)nc3N1C2
- ring closure, isolated yield ([1]; from 2,6-dichloro-N-[[6-[3-[(3S)-5,5-dimethylpyrrolidin-3-yl]propylamino]-2-pyridyl]sulfonyl]pyridine-3-carboxamide (dihydrochloride salt), 15-membered ring, K2CO3/CsF/3A MS, NMP, 113.8 mM, 150.0 °C): 54%

Compound: CC1(C)C[C@@H]2CCCNc3cccc(n3)S(=O)(=O)NC(=O)c3ccc(-n4ccc(OCC(O[Si](C)(C)C(C)(C)C)C5C6(CC6)C56CC6)n4)nc3N1C2 (some centres unmarked)
- ring closure, isolated yield ([1]; from CC1(C)C[C@H](CCCNc2cccc(S(=O)(=O)NC(=O)c3ccc(-n4ccc(OCC(O[Si](C)(C)C(C)(C)C)C5C6(CC6)C56CC6)n4)nc3Cl)n2)CN1, 15-membered ring, K2CO3/MS, DMSO, 9.9 mM, 140.0 °C, 12.0 h): 55%

Compound: CC1(C)C[C@@H]2CCCNc3cccc(n3)S(=O)(=O)NC(=O)c3ccc(N4CCC(OCCC5C6(CC6)C56CC6)C4=O)nc3N1C2 (some centres unmarked)
- ring closure, isolated yield ([1]; from 2-chloro-N-[[6-[3-[(3S)-5,5-dimethylpyrrolidin-3-yl]propylamino]-2-pyridyl]sulfonyl]-6-[3-(2-dispiro[2.0.2.1]heptan-7-ylethoxy)-2-oxo-pyrrolidin-1-yl]pyridine-3-carboxamide (dihydrochloride salt), 15-membered ring, K2CO3, NMP, 24.0 mM, 150.0 °C): 52%

Compound: CC(C)(C)CCCOC1CCN(c2ccc3c(n2)N2C[C@@H](CCCNc4cccc(n4)S(=O)(=O)NC3=O)CC2(C)C)C1=O (single isomer, unassigned; diastereomer 2)
- ring closure, isolated yield [1, 3]: 19%

Compound: CC(C)(C)CCCOC1CCN(c2ccc3c(n2)N2C[C@@H](CCCNc4cccc(n4)S(=O)(=O)NC3=O)CC2(C)C)C1=O (single isomer, unassigned; diastereomer 1)
- ring closure, isolated yield [1, 3]: 20%

Compound: CC1(C)C[C@@H]2CCCNc3nc(ccc3OCc3ccccc3)S(=O)(=O)NC(=O)c3ccc(-n4ccc(OCCCC5(C(F)(F)F)CC5)n4)nc3N1C2
- ring closure, isolated yield ([1]; from CC1(C)CC(CCCNc2nc(S(=O)(=O)NC(=O)c3ccc(-n4ccc(OCCCC5(C(F)(F)F)CC5)n4)nc3Cl)ccc2OCc2ccccc2)CN1, 15-membered ring, K2CO3/CsF, DMSO, 17.7 mM, 160.0 °C, 15.0 h): 82%

Compound: [2H]C([2H])(Oc1ccn(-c2ccc3c(n2)N2C[C@@H](CCCNc4cccc(n4)S(=O)(=O)NC3=O)CC2(C)C)n1)C([2H])([2H])C1C2(CC2)C12CC2
- ring closure, isolated yield ([1]; from [2H]C([2H])(Oc1ccn(-c2ccc(C(=O)NS(=O)(=O)c3cccc(NCCC[C@@H]4CN(C(=O)OC(C)(C)C)C(C)(C)C4)n3)c(Cl)n2)n1)C([2H])([2H])C1C2(CC2)C12CC2, 15-membered ring, K2CO3/3A MS, NMP, 22.2 mM, 155.0 °C, 2 steps): 60%

Compound: CC1(C)C[C@@H]2CCCNc3nc(ccc3OCc3ccccc3)S(=O)(=O)NC(=O)c3ccc(-n4ccc(OCCC5C6(CC6)C56CC6)n4)nc3N1C2
- ring closure, isolated yield ([1]; from CC1(C)C[C@H](CCCNc2nc(S(=O)(=O)NC(=O)c3ccc(-n4ccc(OCCC5C6(CC6)C56CC6)n4)nc3Cl)ccc2OCc2ccccc2)CN1, 15-membered ring, K2CO3/CsF, DMSO, 17.2 mM, 160.0 °C, 15.0 h): 83%

Compound: [2H]C([2H])(COc1ccn(-c2ccc3c(n2)N2C[C@@H](CCCNc4nc(ccc4OCc4ccccc4)S(=O)(=O)NC3=O)CC2(C)C)n1)C1C2(CC2)C12CC2
- ring closure, isolated yield ([1]; from [2H]C([2H])(COc1ccn(-c2ccc(C(=O)NS(=O)(=O)c3ccc(OCc4ccccc4)c(NCCC[C@@H]4CN(C(=O)OC(C)(C)C)C(C)(C)C4)n3)c(Cl)n2)n1)C1C2(CC2)C12CC2, 15-membered ring, K2CO3/CsF/4A MS, DMSO, 51.0 mM, 150.0 °C, 2 steps): 68%

Compound: CC1(C)C[C@@H]2CCCNc3ccc(OCc4ccccc4)c(n3)S(=O)(=O)NC(=O)c3ccc(-n4ccc(OCCCC5(C(F)(F)F)CC5)n4)nc3N1C2
- ring closure, isolated yield ([1]; from N-[[3-benzyloxy-6-[3-[(3S)-5,5-dimethylpyrrolidin-3-yl]propylamino]-2-pyridyl]sulfonyl]-2-chloro-6-[3-[3-[1-(trifluoromethyl)cyclopropyl]propoxy]pyrazol-1-yl]pyridine-3-carboxamide (ditrifluoroacetate salt), 15-membered ring, K2CO3, NMP, 42.6 mM, 150.0 °C): 39%

Compound: 12,12,19-trimethyl-8-(3-{2-[1-(trifluoromethyl)cyclopropyl]ethoxy}-1H-pyrazol-1-yl)-2λ^6-thia-3,9,11,19,21-pentaazatetracyclo[18.2.2.111,14.05,10]pentacosa-1(23),5,7,9,20(24),21-hexaene-2,2,4-trione (dihydrochloride salt)
- ring closure, isolated yield ([1]; 17-membered ring, K2CO3/CsF, DMSO, 42.1 mM, 150.0 °C): 39%

Compound: CC1(C)CC2CCCCCNc3cccc(n3)S(=O)(=O)NC(=O)c3ccc(-n4ccc(OCCC5(C(F)(F)F)CC5)n4)nc3N1C2 (single isomer, unassigned; enantiomer 2)
- ring closure, isolated yield ([1]; from CC1(C)CC(CCCCCNc2cccc(S(=O)(=O)NC(=O)c3ccc(-n4ccc(OCCC5(C(F)(F)F)CC5)n4)nc3Cl)n2)CN1, 17-membered ring, K2CO3/CsF/3A MS, DMSO, 35.8 mM, 165.0 °C, 16.0 h): 50%
